# How the values were obtained:
# Type in all cases: cell-based
# [1] = test system: mouse islets; assay: Mouse islet perifusion, control and Gipr beta-cell knockout islets ± Ex9 (Fig. 1a), insulin secretion; conditions: Ex9 1 μM
# Protocol: (§1) In brief, islets were individually picked to ensure consistency across chambers with respect to both number and size. […] Insulin values were measured with a Lumit insulin immunoassay (Promega) using an EnVision plate reader (PerkinElmer).
# [2] = test system: mouse islets; assay: Mouse islet perifusion with incretin receptor antagonists (Fig. 1b), insulin secretion; conditions: antagonists 1 μM, tirzepatide 0–100 nM
# Protocol: as §1
# [3] = test system: human islets; assay: Human islet perifusion, insulin secretion (Fig. 2); conditions: human islets stimulated with TZP; for TZP insulin secretion iAUC, Percent Control: % of Average Control (PBS); for TZP insulin secretion iAUC: PBS or antagonist(s) as labelled
# Protocol: (§2) Human islets were obtained from both the Alberta Diabetes Institute and the Integrated Islet Distribution Program. All islets were obtained from consenting donors. Details for the general perifusion protocol have been previously described[21] and are similar to the mouse perifusion protocol. […] Each set of human islets consisted of n = 3 for each condition. These were averaged to generate a single data point (Fig. 2c). Insulin values were measured with a Lumit insulin immunoassay (Promega) using an EnVision plate reader (PerkinElmer). For the glucagon secretion experiments (Fig. 3), the average glucagon values were calculated during control (minutes 35–45) and stimulated (minutes 55–65) conditions. All peptides were used at 30 nM concentrations based on previous work[16]. Amino acids were used at concentrations of 3 mM based on previous work[11]. Glucagon was measured with a Lumit Glucagon Immunoassay Kit (cat. no. CS3037A02; Promega) using an EnVision plate reader (PerkinElmer). Somatostatin was measured with an ELISA assay (cat. no. FEK-060-14; Phoenix Pharmaceuticals). All data are expressed as the measured concentration relative to both flow rate and islet number (insulin, ng ml^–1 × (1/200 µl ml^–1) × (1/75 islets); glucagon, pM × (1/200 µl ml^–1) × (1/75 islets); somatostatin, pg ml^–1 × (1/200 µl ml^–1) × (1/75 islets))[49]. Human pancreatic islets and pancreas tissue were isolated from deceased donors under ethical approval from the Human Research Ethics Board of the University of Alberta (Pro00013094, Pro00001754) and obtained from the NIDDK-funded Integrated Islet Distribution Program (IIDP) (RRID: SCR _014387). All donors’ families gave informed consent for the use of pancreatic tissue in research and were not financially compensated.
# [4] = test system: human islets; assay: Human islet perifusion, insulin secretion with Ex9 or hGIP(3-30) (Extended Data Fig. 2); parameters: key to iAUC: insulin iAUC, ng/ml × (1/200 µl/ml) × (1/75 islets), baseline = first point; conditions: insulin secretion; for Mean (One way ANOVA): iAUC, Control = 1, mean of n = 3; for iAUC: TZP + PBS or labelled antagonist
# Protocol: as §2
# The integrated area under the curve (iAUC) was calculated for both glucose and tirzepatide stimulated insulin secretion using the value of the first time point as the baseline. All values are mean + /- SEM, n = 3/group. A one-way ANOVA with Tukey’s posthoc test was used. Source data
substance,measurement,setting,value
exendin(9-39) [Ex9],Effect on tirzepatide-stimulated insulin secretion,[1],completely blocked insulin secretion in response to tirzepatide
same,Effect on tirzepatide-stimulated insulin secretion,[2],prevented insulin secretion in response to tirzepatide
same,"TZP insulin secretion iAUC, Percent Control","[3]; donor R434, replicate 1",81.0 %Control
same,"TZP insulin secretion iAUC, Percent Control","[3]; donor R434, replicate 2",70.5 %Control
same,"TZP insulin secretion iAUC, Percent Control","[3]; donor R434, replicate 3",110.7 %Control
same,TZP insulin secretion iAUC,"[3]; donor R434, replicate 1",149.1
same,TZP insulin secretion iAUC,"[3]; donor R434, replicate 2",129.7
same,TZP insulin secretion iAUC,"[3]; donor R434, replicate 3",203.7
same,"TZP insulin secretion iAUC, Percent Control","[3]; donor R443, replicate 1",152.6 %Control
same,"TZP insulin secretion iAUC, Percent Control","[3]; donor R443, replicate 2",43.9 %Control
same,"TZP insulin secretion iAUC, Percent Control","[3]; donor R443, replicate 3",123.9 %Control
same,TZP insulin secretion iAUC,"[3]; donor R443, replicate 1",9.764
same,TZP insulin secretion iAUC,"[3]; donor R443, replicate 2",2.809
same,TZP insulin secretion iAUC,"[3]; donor R443, replicate 3",7.929
same,"TZP insulin secretion iAUC, Percent Control","[3]; donor R444, replicate 1",49.3 %Control
same,"TZP insulin secretion iAUC, Percent Control","[3]; donor R444, replicate 2",46.5 %Control
same,"TZP insulin secretion iAUC, Percent Control","[3]; donor R444, replicate 3",59.5 %Control
same,TZP insulin secretion iAUC,"[3]; donor R444, replicate 1",12.31
same,TZP insulin secretion iAUC,"[3]; donor R444, replicate 2",11.61
same,TZP insulin secretion iAUC,"[3]; donor R444, replicate 3",14.86
same,"TZP insulin secretion iAUC, Percent Control","[3]; donor R448, replicate 1",95.4 %Control
same,"TZP insulin secretion iAUC, Percent Control","[3]; donor R448, replicate 2",86.1 %Control
same,"TZP insulin secretion iAUC, Percent Control","[3]; donor R448, replicate 3",78.6 %Control
same,TZP insulin secretion iAUC,"[3]; donor R448, replicate 1",169.1
same,TZP insulin secretion iAUC,"[3]; donor R448, replicate 2",152.5
same,TZP insulin secretion iAUC,"[3]; donor R448, replicate 3",139.2
same,"TZP insulin secretion iAUC, Percent Control","[3]; donor R449, replicate 1",10.8 %Control
same,"TZP insulin secretion iAUC, Percent Control","[3]; donor R449, replicate 2",15.5 %Control
same,"TZP insulin secretion iAUC, Percent Control","[3]; donor R449, replicate 3",25.1 %Control
same,TZP insulin secretion iAUC,"[3]; donor R449, replicate 1",14.8
same,TZP insulin secretion iAUC,"[3]; donor R449, replicate 2",21.27
same,TZP insulin secretion iAUC,"[3]; donor R449, replicate 3",34.32
same,"TZP insulin secretion iAUC, Percent Control","[3]; donor R451, replicate 1",39.0 %Control
same,"TZP insulin secretion iAUC, Percent Control","[3]; donor R451, replicate 2",22.6 %Control
same,"TZP insulin secretion iAUC, Percent Control","[3]; donor R451, replicate 3",24.7 %Control
same,TZP insulin secretion iAUC,"[3]; donor R451, replicate 1",36.08
same,TZP insulin secretion iAUC,"[3]; donor R451, replicate 2",20.91
same,TZP insulin secretion iAUC,"[3]; donor R451, replicate 3",22.84
same,"TZP insulin secretion iAUC, Percent Control","[3]; donor S1472, replicate 1",91.9 %Control
same,"TZP insulin secretion iAUC, Percent Control","[3]; donor S1472, replicate 2",146.0 %Control
same,"TZP insulin secretion iAUC, Percent Control","[3]; donor S1472, replicate 3",127.6 %Control
same,TZP insulin secretion iAUC,"[3]; donor S1472, replicate 1",50.05
same,TZP insulin secretion iAUC,"[3]; donor S1472, replicate 2",79.46
same,TZP insulin secretion iAUC,"[3]; donor S1472, replicate 3",69.48
same,"TZP insulin secretion iAUC, Percent Control","[3]; donor S2886, replicate 1",19.6 %Control
same,"TZP insulin secretion iAUC, Percent Control","[3]; donor S2886, replicate 2",20.0 %Control
same,"TZP insulin secretion iAUC, Percent Control","[3]; donor S2886, replicate 3",50.9 %Control
same,TZP insulin secretion iAUC,"[3]; donor S2886, replicate 1",36.46
same,TZP insulin secretion iAUC,"[3]; donor S2886, replicate 2",37.22
same,TZP insulin secretion iAUC,"[3]; donor S2886, replicate 3",94.97
same,Mean (One way ANOVA),"[4]; donor R464, R464 (3-30) TZP",1.267
same,Mean (One way ANOVA),"[4]; donor S5423, SAMN5423 (3-30) TZP",1.135
same,iAUC,"[4]; donor R464, replicate 1",1.277
same,iAUC,"[4]; donor R464, replicate 2",1.0253
same,iAUC,"[4]; donor R464, replicate 3",1.497
same,iAUC,"[4]; donor S5423, replicate 1",1.294
same,iAUC,"[4]; donor S5423, replicate 2",1.08
same,iAUC,"[4]; donor S5423, replicate 3",1.031
